Assay results reported in patent US8946201B2, “Methods for inhibiting TGF-β” (Saint Louis University, priority 2007, dated 2015).

What was measured:
hair growth = experiment: Hair growth assay in mice; assay type: in vivo, mice (C57BL/6); details: lotion containing 0.025% cholesterol, topical every two days
Protocol: FIG. 7. Hair growth promotion in mice topically treated with cholesterol. Mice (female, 6 weeks old) were subjected to hair removal by using hair remover lotion Nair®. The areas after hair removal were treated with the lotion containing vehicle only or 0.025% cholesterol on the first day and every other two days. Photographs were taken immediately after hair removal and prior to topical application with vehicle (a,b,c) or lotion containing cholesterol (d,e,f). Photographs were taken at days 0 (a,d), 10 (b,e) and 18 (c,f). The dark color indicates an early stage of hair growth.
Hair at the back of female mice (C57BL/6, 6-8 weeks old, were removed by using Nair® lotion hair remover. Lotions containing 0.025 and 0.00625% cholesterol and vehicle only were topically applied onto the area where the hair was removed. On the first day and every other day, photographs were taken prior to administration of the lotions. On day 18, the re-grown hair was shaved and weighed.
The hair growth cycle is coordinated with complex processes that are dependent on the interactions of epithelial and dermal components (follicle keratinocytes and dermal papilla cells). The hair growth cycle includes two major phases, growing phase (anagen) and regression phase (catagen). The length and size of hair are dependent on the anagen term in the hair cycle. […]

[1] = tested on: Smad2 phosphorylation stimulated by TGF-β1; experiment: TGF-β1-stimulated Smad2 phosphorylation, Western blot, NRK cells; assay type: cell-based, rat; details: 25 μg/ml, 37° C. 1 hr, then 50 pM TGF-β1 0.5 hr
Protocol: (§1) Cells were treated with increasing concentrations of cholesterol, as indicated (A, B, C), 50 μg protein/ml LDL (D), 5 μg protein/ml VLDL (D) or 50 μg/ml cholesterol (E) at 37° C. for 1 hr and then further incubated with 50 pM TGF-β1 for 30 min. Phosphorylated Smad2 (P-Smad2) and total Smad2 in the cell lysates were analyzed by 7.5% SDS-PAGE and followed by immunoblot analysis using anti-P-Smad2 and anti-Smad2 antibodies. A representative of a total of 3 analyses is shown (top). The quantitative analysis of the immunoblots is shown (bottom). […] Smad2 nuclear translocation was analyzed by indirect immunofluorescent staining using P-Smad2 antibody and rhodamine-labeled 2nd antibody (E). Rhodamine fluorescence represents P-Smad2 staining (a,b,c) whereas the nuclei were stained by DAPI staining (d,e,f).
(§2) Cells grown to near confluence on 12-well cluster dishes were treated with cholesterol or LDL in serum-free DMEM (vol.=0.5 ml/well) at 37° C. for 1 hr. […] Treated cells were lysed and cell lysates were analyzed by 7.5% SDS-PAGE and Western blot analysis using anti-Smad2, anti-P-Smad2, anti-caveolin-1, anti-TβR-I (alk5) or anti-TβR-II antibodies as described previously (30). […]
(§3) It has been reported that TGF-β responsiveness is determined by TGF-β partitioning between lipid raft/caveolae-mediated and clathrin-mediated endocytosis. […]

[2] = tested on: Smad2 phosphorylation stimulated by TGF-β1; experiment: TGF-β1-stimulated Smad2 phosphorylation, Western blot, Mv1Lu cells; assay type: cell-based, mink
Protocol: as §1, §2, §3

[3] = tested on: Smad2 phosphorylation stimulated by TGF-β1; experiment: TGF-β1-stimulated Smad2 phosphorylation, Western blot, BAEC; assay type: cell-based, bovine; details: 25 μg/ml, 37° C. 1 hr, then 50 pM TGF-β1 0.5 hr
Protocol: as §1, §2, §3

SMILES: CC(C)CCC[C@@H](C)[C@H]1CC[C@H]2[C@@H]3CC=C4C[C@@H](O)CC[C@]4(C)[C@H]3CC[C@]12C [cholesterol]
- hair growth (hair growth; day 10): the hair started to grow
- hair growth (hair growth; day 18): fully grown hair
- suppression of Smad2 phosphorylation stimulated by TGF-β1 [1]: 40%
- suppression of Smad2 phosphorylation stimulated by TGF-β1 ([2]; 25 μg/ml, 37° C. 1 hr, then 50 pM TGF-β1 0.5 hr, Mv1Lu cells): 55%
- effect on Smad2 phosphorylation ([2]; at concentrations of 6 or 10 μg/ml, Mv1Lu, BAEC, NRK cells (FIG. 1)): appreciably suppressed
- suppression of Smad2 phosphorylation stimulated by TGF-β1 [3]: 90%
